# Experimental data taken from US4046914A, “Therapeutically active substituted saturated and mono-and polyunsaturated alkyl-glycerylethers” (Astra Nutrition AB, priority 1975, dated 1977).
# Tested on: He La cells
# Assay: growth of He La cells (cell counts in Burker chamber)
# Assay type: cell-based
# Experimental: Hank's solution containing 0,5 % hydrolysate of lactalbumin, 7 % calf serum and with 7 ml 0,15 % sodium bicarbonate and 20-40.000 I.U. of penicillin and streptomycin added per 100 ml was used for the cultivation of the He La cells. pH was 7,4 at the beginning of the experiment. The medium was changed 2 times per week. A suspension of He La cells was obtained by treatment with versene. The glycerol ethers were dissolved in the medium in concentrations of 1, 5, 25 and 100 μg/ml. 1,5 ml of cell suspension, containing 10^6 cells/ml, was added to 18,5 ml medium. The growth was registered by counting the cells in a Burker chamber.
compound,measurement,setting,value
"CCCCCCCCCCCCCCC(COCC(O)CO)OC (centres unmarked) [AII, 1-O-(2-methoxyhexadecyl)-glycerol]",cytostatic action,25 μg/ml,acted clearly cytostatically
same,time to completely suppressed growth,25 μg/ml,about 15 days
same,effect on He La cell growth,"25 μg/ml, 14 days at 37° C",growth inhibiting and later on a cell killing effect
same,Cell counts,"Table II, 5 μg/ml, 1 day, controls 54",201
same,Cell counts,"Table II, 5 μg/ml, 3 days, controls 122",137
same,Cell counts,"Table II, 5 μg/ml, 6 days, controls 186",225
same,Cell counts,"Table II, 25 μg/ml, 1 day, controls 54",206
same,Cell counts,"Table II, 25 μg/ml, 3 days, controls 122",91
same,Cell counts,"Table II, 25 μg/ml, 6 days, controls 186",148
same,Cell counts,"Table II, 100 μg/ml, 1 day, controls 54",157
same,Cell counts,"Table II, 100 μg/ml, 3 days, controls 122",All cells dead
same,Cell counts,"Table II, 100 μg/ml, 6 days, controls 186",All cells dead
same,Cell counts,"Table III, 5 μg/ml, 1 day, controls 78",63
same,Cell counts,"Table III, 5 μg/ml, 2 days, controls 98",113
same,Cell counts,"Table III, 5 μg/ml, 6 days, controls 228",205
same,Cell counts,"Table III, 5 μg/ml, 10 days, controls 359",407
same,Cell counts,"Table III, 25 μg/ml, 1 day, controls 78",64
same,Cell counts,"Table III, 25 μg/ml, 2 days, controls 98",154
same,Cell counts,"Table III, 25 μg/ml, 6 days, controls 228",160
same,Cell counts,"Table III, 25 μg/ml, 10 days, controls 359",272
same,Cell counts,"Table IV, 1 μg/ml, 2 days, controls 138",121
same,Cell counts,"Table IV, 1 μg/ml, 5 days, controls 172",271
same,Cell counts,"Table IV, 1 μg/ml, 8 days, controls 520",598
same,Cell counts,"Table IV, 1 μg/ml, 11 days, controls 757",546
same,Cell counts,"Table IV, 1 μg/ml, 14 days, controls 649",557
same,Cell counts,"Table IV, 5 μg/ml, 2 days, controls 138",113
same,Cell counts,"Table IV, 5 μg/ml, 5 days, controls 172",200
same,Cell counts,"Table IV, 5 μg/ml, 8 days, controls 520",488
same,Cell counts,"Table IV, 5 μg/ml, 11 days, controls 757",546
same,Cell counts,"Table IV, 5 μg/ml, 14 days, controls 649",637
same,Cell counts,"Table IV, 25 μg/ml, 2 days, controls 138",107
same,Cell counts,"Table IV, 25 μg/ml, 5 days, controls 172",107
same,Cell counts,"Table IV, 25 μg/ml, 8 days, controls 520",241
same,Cell counts,"Table IV, 25 μg/ml, 11 days, controls 757",112
same,Cell counts,"Table IV, 25 μg/ml, 14 days, controls 649",0
same,Cell counts,"Table V, 1 μg/ml, 3 days, controls 210",293
same,Cell counts,"Table V, 1 μg/ml, 6 days after transfer, controls 176",169
same,Cell counts,"Table V, 1 μg/ml, 8 days, controls 510",498
same,Cell counts,"Table V, 5 μg/ml, 3 days, controls 210",246
same,Cell counts,"Table V, 5 μg/ml, 6 days after transfer, controls 176",136
same,Cell counts,"Table V, 5 μg/ml, 8 days, controls 510",517
